Results on 16 compounds are retold here after PubChem BioAssay AID306 (DTP/NCI, 2004).

Structures are written as SMILES. Where “and” joins values, the source holds several entries; their conditions need not be identical. Equal values may be shown once. Inconclusive results and toxic doses are left out.

The subject of the test is BDF1 mice, L1210 Methyl-GAG-resistant leukemia, survival T/C. In words: NCI In Vivo Anticancer Drug Screen. Data for tumor model L1210 Leukemia resistant to Methyl-GAG; NSC 32946 (subcutaneous) in B6D2F1 (BDF1) mice. The note with it: endpoint: mean survival time, higher = longer survival. As for the experimental part:
The antitumor activity of compounds was measured in mice bearing transplantable tumors. Survival or tumor size were measured and the results are expressed as the measurement made in the treated group (T) divided by the measurement made in the vehicle treated control group (C). The tumor model used in this assay is L1210 Leukemia resistant to Methyl-GAG; NSC 32946 (subcutaneous) in B6D2F1 (BDF1) mice

Where [1] appears, read: dose: 12.5 mg/kg/injection, schedule: Q01DX Z (ip), vehicle: saline.
[2] abbreviates: dose: 25.0 mg/kg/injection, schedule: Q01DX Z (ip), vehicle: saline.
Setting [3] is: dose: 25.0 mg/kg/injection, schedule: Q01DX Z (sc), vehicle: steriod suspending solution.
Setting [4] is: dose: 50.0 mg/kg/injection, schedule: Q01DX Z (sc), vehicle: steriod suspending solution.
Where [5] appears, read: dose: 100.0 mg/kg/injection, schedule: Q01DX Z (sc), vehicle: steriod suspending solution.
Where [6] appears, read: dose: 200.0 mg/kg/injection, schedule: Q01DX Z (sc), vehicle: steriod suspending solution.
[7] abbreviates: dose: 400.0 mg/kg/injection, schedule: Q01DX Z (sc), vehicle: steriod suspending solution.
Setting [8] is: dose: 6.25 mg/kg/injection, schedule: Q01DX Z (ip), vehicle: carboxymethylcellulose (CMC).
[9] abbreviates: dose: 12.5 mg/kg/injection, schedule: Q01DX Z (ip), vehicle: carboxymethylcellulose (CMC).
Setting [10] is: dose: 50.0 mg/kg/injection, schedule: Q01DX Z (ip), vehicle: carboxymethylcellulose (CMC).
Setting [11] is: dose: 62.5 mg/kg/injection, schedule: Q01DX Z (ip), vehicle: carboxymethylcellulose (CMC).
Where [12] appears, read: dose: 125.0 mg/kg/injection, schedule: Q01DX Z (ip), vehicle: carboxymethylcellulose (CMC).
[13] abbreviates: dose: 250.0 mg/kg/injection, schedule: Q01DX Z (ip), vehicle: carboxymethylcellulose (CMC).
The mark [14] stands for this setting: dose: 500.0 mg/kg/injection, schedule: Q01DX Z (ip), vehicle: carboxymethylcellulose (CMC).
[15] abbreviates: dose: 1000.0 mg/kg/injection, schedule: Q01DX Z (ip), vehicle: carboxymethylcellulose (CMC).
Setting [16] is: dose: 25.0 mg/kg/injection, schedule: Q01DX Z (ip), vehicle: carboxymethylcellulose (CMC).

With `c1ccc(CNc2ncnc3[nH]ncc23)cc1`, the T/C (dose: 0.97 mg/kg/injection, schedule: Q01DX Z (ip), vehicle: carboxymethylcellulose (CMC)) was 107 % of control; the T/C (dose: 1.95 mg/kg/injection, schedule: Q01DX Z (ip), vehicle: carboxymethylcellulose (CMC)) was 102 % of control; the T/C (dose: 3.9 mg/kg/injection, schedule: Q01DX Z (ip), vehicle: carboxymethylcellulose (CMC)) was 108 % of control and 121 % of control; the T/C (dose: 7.8 mg/kg/injection, schedule: Q01DX Z (ip), vehicle: carboxymethylcellulose (CMC)) is 100 % of control and 103 % of control; the T/C (dose: 15.5 mg/kg/injection, schedule: Q01DX Z (ip), vehicle: carboxymethylcellulose (CMC)) was 107 % of control; the T/C (dose: 31.0 mg/kg/injection, schedule: Q01DX Z (ip), vehicle: carboxymethylcellulose (CMC)) is 110 % of control.
For `O=P1(N(CCCl)CCCl)NCCCO1` (stereo not given), the T/C by setting is: (dose: 6.25 mg/kg/injection, schedule: Q01DX Z (ip), vehicle: saline) 93 % of control; under setting [1], 122 % of control and 123 % of control; under setting [2], 254 % of control and 151 % of control; (dose: 50.0 mg/kg/injection, schedule: Q01DX Z (ip), vehicle: saline) 257 % of control and 98 % of control; (dose: 100.0 mg/kg/injection, schedule: Q01DX Z (ip), vehicle: saline) 90 % of control and 98 % of control.
Consider `C[C@]12C=CC(=O)C=C1CC[C@@H]1[C@@H]2C(=O)C[C@@]2(C)[C@H]1CC[C@]2(O)C(=O)CO`, for which the T/C runs as follows: under setting [3], 91 % of control and 115 % of control; under setting [4], 103 % of control; under setting [5], 150 % of control; under setting [6], 115 % of control; under setting [7], 112 % of control and 118 % of control.
As for `Cn1cc(NC(=O)c2cc(NC(=O)CN=C(N)N)cn2C)cc1C(=O)NCCC(=N)N`, the T/C is 112 % of control (dose: 6.3 mg/kg/injection, schedule: Q01DX Z (ip), vehicle: saline); 102 % of control under setting [1]; 91 % of control under setting [2].
Consider `CSc1ncnc2c1ncn2C1OC(CO)C(O)C1O` (stereo not given), for which the T/C under setting [8] is 102 % of control, the T/C under setting [9] is 107 % of control and the T/C under setting [10] was 97 % of control.
In the case of `OCC1OC(n2cnc3c(Cl)ncnc32)C(O)C1O` (stereo not given), the T/C under setting [11] is 96 % of control; the T/C under setting [12] is 94 % of control; the T/C under setting [13] is 99 % of control; the T/C under setting [14] is 88 % of control and 102 % of control; the T/C under setting [15] is 91 % of control.
Turning to `Nc1ncnc2[nH]ncc12`, the T/C (dose: 0.8 mg/kg/injection, schedule: Q01DX Z (ip), vehicle: carboxymethylcellulose (CMC)) was 102 % of control; the T/C (dose: 1.6 mg/kg/injection, schedule: Q01DX Z (ip), vehicle: carboxymethylcellulose (CMC)) is 100 % of control; the T/C (dose: 3.1 mg/kg/injection, schedule: Q01DX Z (ip), vehicle: carboxymethylcellulose (CMC)) was 104 % of control; the T/C under setting [8] is 106 % of control; the T/C under setting [9] was 102 % of control; the T/C under setting [16] is 90 % of control. In addition, the T/C under setting [10] is 93 % of control and 96 % of control.
`C[C@H](N)C(=O)N[C@@H]1[C@H]2C(=C(O)C[C@@H](O)[C@@H]2O)C(=O)O[C@@H]1C`: the T/C runs as follows: (dose: 31.25 mg/kg/injection, schedule: Q01DX Z (ip), vehicle: saline) 96 % of control; (dose: 125.0 mg/kg/injection, schedule: Q01DX Z (ip), vehicle: saline) 102 % of control; (dose: 250.0 mg/kg/injection, schedule: Q01DX Z (ip), vehicle: saline) 116 % of control; (dose: 2000.0 mg/kg/injection, schedule: Q01DX Z (ip), vehicle: saline) 96 % of control.
For the compound `O=C(O)CCCc1ccc(N(CCCl)CCCl)cc1`, the T/C is 91 % of control under setting [8], 98 % of control under setting [9] and 104 % of control under setting [16].
Turning to `CC(=O)[C@H]1CC[C@H]2[C@@H]3C[C@H](C)C4=CC(=O)CC[C@]4(C)[C@H]3C(=O)C[C@]12C`, the T/C reads like this: under setting [3], 97 % of control; under setting [4], 95 % of control and 103 % of control; under setting [5], 97 % of control and 103 % of control and 114 % of control; under setting [6], 90 % of control and 105 % of control and 111 % of control; under setting [7], 105 % of control and 112 % of control; (dose: 800.0 mg/kg/injection, schedule: Q01DX Z (sc), vehicle: steriod suspending solution) 120 % of control.
In the case of `C[C@@H]1C[C@@H]([C@H](O)CC2CC(=O)NC(=O)C2)C(=O)[C@@H](C)C1`, the T/C was 90 % of control (dose: 9.4 mg/kg/injection, schedule: Q01DX Z (ip), vehicle: water); 114 % of control and 122 % of control (2×) (dose: 12.5 mg/kg/injection, schedule: Q01DX Z (ip), vehicle: water); 93 % of control (dose: 18.8 mg/kg/injection, schedule: Q01DX Z (ip), vehicle: water); 156 % of control (dose: 25.0 mg/kg/injection, schedule: Q01DX Z (ip), vehicle: water); 124 % of control (dose: 37.5 mg/kg/injection, schedule: Q01DX Z (ip), vehicle: water); 108 % of control (dose: 50.0 mg/kg/injection, schedule: Q01DX Z (ip), vehicle: water).
Turning to `O=c1cn[nH]c(=O)[nH]1`, the T/C runs as follows: under setting [11], 96 % of control; under setting [12], 106 % of control; under setting [13], 116 % of control; under setting [14], 114 % of control; under setting [15], 112 % of control.
In the case of `CC(=O)O[C@]1(C(C)=O)CC[C@H]2[C@@H]3C[C@H](C)C4=CC(=O)C=C[C@]4(C)[C@@]3(F)[C@@H](O)C[C@@]21C`, the T/C was 102 % of control (dose: 10.0 mg/kg/injection, schedule: Q01DX Z (sc), vehicle: steriod suspending solution); 105 % of control (dose: 20.0 mg/kg/injection, schedule: Q01DX Z (sc), vehicle: steriod suspending solution); 121 % of control (dose: 40.0 mg/kg/injection, schedule: Q01DX Z (sc), vehicle: steriod suspending solution); 114 % of control (dose: 80.0 mg/kg/injection, schedule: Q01DX Z (sc), vehicle: steriod suspending solution); 121 % of control (dose: 160.0 mg/kg/injection, schedule: Q01DX Z (sc), vehicle: steriod suspending solution); 115 % of control (dose: 320.0 mg/kg/injection, schedule: Q01DX Z (sc), vehicle: steriod suspending solution).
Regarding `CCC(=O)O[C@H]1CC[C@H]2[C@@H]3CCC4=CC(=O)CC[C@]4(C)[C@H]3CC[C@]12C`, the T/C by setting is: (dose: 37.5 mg/kg/injection, schedule: Q01DX Z (sc), vehicle: steriod suspending solution) 101 % of control; (dose: 60.0 mg/kg/injection, schedule: Q01DX Z (sc), vehicle: steriod suspending solution) 120 % of control; (dose: 75.0 mg/kg/injection, schedule: Q01DX Z (sc), vehicle: steriod suspending solution) 104 % of control; (dose: 150.0 mg/kg/injection, schedule: Q01DX Z (sc), vehicle: steriod suspending solution) 98 % of control; (dose: 300.0 mg/kg/injection, schedule: Q01DX Z (sc), vehicle: steriod suspending solution) 98 % of control and 119 % of control; (dose: 1500.0 mg/kg/injection, schedule: Q01DX Z (sc), vehicle: steriod suspending solution) 96 % of control.
On to `O=CCC(O)C(O)C(O)CO` (stereo not given), for which the T/C under setting [11] was 98 % of control; the T/C under setting [12] was 103 % of control; the T/C under setting [13] was 101 % of control; the T/C under setting [14] is 119 % of control; the T/C under setting [15] is 108 % of control; the T/C (dose: 2000.0 mg/kg/injection, schedule: Q01DX Z (ip), vehicle: carboxymethylcellulose (CMC)) was 90 % of control.
As for `Cn1cnc([N+](=O)[O-])c1Sc1ncnc2nc[nH]c12`, the T/C is, setting by setting: under setting [9], 105 % of control; under setting [16], 103 % of control; under setting [10], 124 % of control; (dose: 100.0 mg/kg/injection, schedule: Q01DX Z (ip), vehicle: carboxymethylcellulose (CMC)) 88 % of control.
